Entries after “also recorded” stand apart in the source; their conditions may differ.
Experiments:
choriocapillaris [1] = experiment: Photodynamic therapy with liposomal hypocrellin A in rabbit eyes, yellow laser (568 nm), fundus observation and fluorescein angiography; type: in vivo, Rabbits (Dutch belted pigmented); details: for Fluorescein Angiogram 2 hours post PDT / Fluorescein Angiogram 24 hours post PDT: 568 nm, 500 μg/kg i.v. in liposomes
Method: (§1) Rabbits (twenty-five Dutch belted pigmented, 2-3 kg body weight), were administered hypocrellin A (Molecular Probes, Eugene, Oreg.) by systemic injection into the ear vein. Animals were anesthetized by intramuscular injection of ketamine hydrochloride (50 mg/kg) and xylazine hydrochloride (5 mg/kg). Pupils were dilated with 2.5% phenylephrine and 0.5% tropicamide.
Hypocrellin A was incorporated into liposomes composed of phosphatidylcholine (PC), phosphatidylglycerol (PG), cholesterol, or dipalmitoyl phosphatidylcholine (DPPC), dipalmitoyl phosphatidylglycerol (DPPG) (Avanti Polar Lipids, Pelham, Ala.), with or without cholesterol, using methods known to one of skill in this art. In general, large unilamellar vesicles (LUV) were formed using the reverse phase evaporation method of Szoka and Papahadjopoulos (Proc. Natl. Acad. Sci. USA 1978; 75:4194-4198). Lipids (100 mg PC, 25 mg PG, and optionally 15 mg cholesterol) and 1 mg hypocrellin A were dissolved in chloroform. The solution was placed in a round flask under rotary evaporation (Buschi Laboratoriums-teenik AG, Flawil, Schewiz) to make a thin film. The dried material was dissolved in 6 ml chloroform and 12 ml ether.
The aqueous phase consisted of 4 ml HEPES buffered saline ([…] NaCI, 2 mM KCI, 10 mM HEPES buffer, pH 7.4, 300 mOsm). This was added to the chloroform/ether solution, the flask was filled with nitrogen gas and subjected to ultrasound at 40° C. for two minutes to form a homogeneous emulsion, which was transferred to a rotary evaporator. At pressures below about 400 mm Hg, the emulsion began to bubble extensively as the organic phase was drawn off. […] The foaming emulsion was vented whenever it neared the top of the flask. Progressively higher vacuum was used to maintain foaming. As the process continued, the foaming decreased. At a pressure of about 100 mm Hg, foaming ceased and the procedure was completed. The process yielded large, negatively charged, unilamellar liposomes with HEPES buffer encapsulated into the aqueous phase and hypocrellin A incorporated into the bilayers of the liposomes. Before injection, the LUV were filtered through 0.8 μm pores.
The hypocrellin preparation was administered as an intravenous bolus into the marginal ear vein. The dose of hypocrellin administered was 500 μg/kg in a volume of about 2 ml. However, doses in the range of about […] may also be administered. Control animals received vehicle (liposomes without hypocrellin A in a saline solution) only.
(§2) After administration of compound, for example, 10-15 minutes after hypocrellin A administration, PDT was initiated upon application of laser irradiation with a dye laser (Coherent, Palo Alto, Calif.). Prior to light application, a lens with a focal length of 25 cm was placed in front of the laser beam to prevent interference with the slit lamp light path and to enlarge the spot size produced by the 500 μm setting of the laser to 2 mm on the retina. A spot size of 2 mm was used throughout. A plano fundus contact lens was placed on the cornea, with methylcellulose gel as a coupler, to null the refraction of the cornea. Animals were positioned in a stereotactic support attached to the slit lamp to maintain precise alignment.
The wavelengths were tested: yellow (568 nm) and red (647 nm). Laser powers were in the range of about 10 mW to about 60 mW. Duration of irradiation was for a minimum of 10 seconds to a maximum of 60 seconds. The photodynamic effect is not only related to the irradiance, but power and duration as well. Fluence (irradiance) is the product of power and duration divided by the spot size, but with a constant spot size, irradiance is a function of power and duration only. Fluence was in the range of 3.2 to 95.5 J/cm^2. […] In one embodiment, the lowest possible power and duration that induce the minimal fluorescein angiographic response is used.
The irradiations were done in the avascular retina, below the optic disc. […]

choriocapillaris [2] = experiment: Photodynamic therapy with hypocrellin A in rabbit eyes, red laser (647 nm), funduscopy and angiography; type: in vivo, Rabbits (Dutch belted pigmented); details: 647 nm (red laser); dose of 500 μg/kg systemically; any of the power levels or durations tested
Method: as §1
The hypocrellin preparation was administered as an intravenous bolus into the marginal ear vein. […] However, doses in the range of about […] may also be administered. Control animals received vehicle (liposomes without hypocrellin A in a saline solution) only.
as §2, with “alignment. […]” for “alignment.”

choriocapillaris [3] = test system: choriocapillaris
Method: Immediately after the second fluorescein examination, eyes were enucleated and fixed in 2% paraformaldehyde and 3% glutaraldehyde for 24 h. The areas of PDT treatment were surgically excised and specimens were dehydrated in ethanol, embedded in resin, subjected to serial sectioning and staining with 1% toluidine blue for light microscopy.

[4] = cited from earlier work
[5] = power 10 mW, duration 10, 20, 30, 40, 50, 60 sec, irradiance 3.2-19.1 J/cm^2, 2 mm spot
[6] = power 20 mW, duration 10, 20, 30, 40, 50 sec, irradiance 6.4-31.8 J/cm^2
[7] = power 20 mW, duration 60 sec, irradiance 38.2 J/cm^2
[8] = power 30 mW, duration 10, 20, 30 sec, irradiance 9.6-28.6 J/cm^2
[9] = power 30 mW, duration 40, 50, 60 sec, irradiance 38.2-57.3 J/cm^2
[10] = power 40 mW, duration 10 sec, irradiance 12.7 J/cm^2
[11] = power 40 mW, duration 20, 30, 40, 50, 60 sec, irradiance 25.4-76.4 J/cm^2
[12] = power 50 mW, duration 10, 20, 30, 40, 50, 60 sec, irradiance 15.9-95.5 J/cm^2
[13] = power 60 mW, duration 10 sec, irradiance 19.1 J/cm^2
[14] = power 60 mW, duration 20 sec, irradiance 38.2 J/cm^2
[15] = power 60 mW, duration 30 sec, irradiance 57.3 J/cm^2

## hypocrellin A
Choriocapillaris [1]; 568 nm (yellow laser), treated rabbits
  retinal changes in the treated area during or immediately after laser irradiation: no retinal changes
Choriocapillaris [1]; [5]
  Fluorescein Angiogram 2 hours post PDT: no effect; also recorded: No response
  Fluorescein Angiogram 24 hours post PDT: no effect; also recorded: No response
Choriocapillaris [1]; [6]
  Fluorescein Angiogram 2 hours post PDT: no effect; also recorded: No response
  Fluorescein Angiogram 24 hours post PDT: no effect; also recorded: No response
Choriocapillaris [1]; [7]
  Fluorescein Angiogram 2 hours post PDT: No response
  Fluorescein Angiogram 24 hours post PDT: minimal response; also recorded: Minimal H
Choriocapillaris [1]; [8]
  Fluorescein Angiogram 2 hours post PDT: No response
  Fluorescein Angiogram 24 hours post PDT: No response
Choriocapillaris [1]; [9]
  Fluorescein Angiogram 2 hours post PDT: No response
  Fluorescein Angiogram 24 hours post PDT: fluorescence effect was seen and H
Choriocapillaris [1]; [10]
  Fluorescein Angiogram 2 hours post PDT: No response
  Fluorescein Angiogram 24 hours post PDT: No response
Choriocapillaris [1]; [11]
  Fluorescein Angiogram 2 hours post PDT: no effect; also recorded: No response
  Fluorescein Angiogram 24 hours post PDT: fluorescence effect and H
Choriocapillaris [1]; [12]
  Fluorescein Angiogram 2 hours post PDT: No response
  Fluorescein Angiogram 24 hours post PDT: fluorescence effect was observed and H
Choriocapillaris [1]; [13]
  Fluorescein Angiogram 2 hours post PDT: No response
  Fluorescein Angiogram 24 hours post PDT: response visible on the angiogram and fluorescence effect and H
Choriocapillaris [1]; [14]
  Fluorescein Angiogram 2 hours post PDT: fluorescence effect was seen and H
  Fluorescein Angiogram 24 hours post PDT: fluorescence effect was seen and H
Choriocapillaris [1]; [15]
  Fluorescein Angiogram 2 hours post PDT: fluorescence effect was seen and H
  Fluorescein Angiogram 24 hours post PDT: fluorescence effect was seen and H
Choriocapillaris [2]
  funduscopic or angiographic changes: no demonstrable funduscopic or angiographic changes
Choriocapillaris [3]; all eyes that developed angiographic changes
  histologic finding by light microscopy 24 hours after laser irradiation: occlusion of the choriocapillaris
Choriocapillaris [3]; light microscopy 24 hours after laser irradiation
  damage to inner or outer retinal layers: No damage to inner or outer retinal layers
[4]
  toxicity in the absence of light: non-toxic

— patent US6524330B1, “Method of ocular treatment” (priority 2000, dated 2003)
